Source: patent US7572815B2, “Amide derivative” (Ajinomoto Co., Inc., priority 2003, dated 2009)

Tested on: male ICR mouse
Test: Acetic acid-induced writhing method
Assay type: in vivo
Settings: intraperitoneal, 30 minutes before 0.8% acetic acid
Method: The effect of the test compound was considered using male ICR mouse (4-week-old) according to a writhing test method induced by acetic acid. For intraperitoneal administration of a test compound and a standard product, the test compound was dissolved in a saline containing 5% DMSO and 5% Tween 80 to a suitable concentration. The test compound was administered 30 minutes before intraperitoneal administration of 0.8% acetic acid solution (diluted with saline), and the number of writhing was measured for 15 minutes from 5 minutes after acetic acid administration. A saline containing 5% DMSO and 5% Tween 80 was intraperitoneally administered to all control groups (vehicle administration group). Using indomethacin as a standard product, the same test was performed.
The number of writhing by each test compound is shown in FIG. 1, and the number of writhings by indomethacin is shown in FIG. 2.

Row | SMILES | Inhibition ratio (%) of number of writhing (dose 10 mg/kg) [%] | Inhibition ratio (%) of number of writhing (dose 20 mg/kg) [%]
1 | COc1ccc2c(c1)c(CC(=O)O)c(C)n2C(=O)c1ccc(Cl)cc1 [indomethacin, reference compound] | 31 | 
2 | CCN(CCCC(=O)Nc1ccccc1Br)c1cccc(C)c1 [Example 52, N-(2-bromophenyl)-4-(ethyl-3-methylanilino)butanamide] | 19 | 67
